# Reference: PubChem BioAssay AID2060908 (Molecular Pharmacology Branch, DTP, NCI, 2025)
# pIC50: −log10 of the molar value.
# System: 186277-243-T-J2-PDC complex spheroids, viability
# Test: Anticancer human tumor 186277-243-T-J2-PDC patient-derived colon adenocarcinoma cell line growth inhibition [RAS]
# Conditions: for pIC50: curve of first compound; for viability, T/C: stronger effect = lower value
# Method in brief: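 Agents were tested in combination matrices in half-log decrements from a top concentration at or near clinical Cmax (10 microM if undetermined). Targets were multi-cell spheroids of tumour lines plus HUVEC and MSC stromal cells.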
# 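Note: spheroids exposed to compounds for 7 days before viability read.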
smiles,measurement,setting,value
NC1c2ccccc2OC12CCN(c1cnc3c(N4CCCc5ncccc54)n[nH]c3n1)CC2 (configuration not stated) + C=CC(=O)N1CCN(c2nc(OCC3CCCN3C)nc3c(F)c(-c4nc(N)cc(C)c4C(F)(F)F)c(Cl)cc23)C(C)C1,pIC50,second compound 0.00316 µM,< 5.00
same,pIC50,second compound 0.01 µM,< 5.00
same,pIC50,second compound 0.0316 µM,5.04
same,pIC50,second compound 0.1 µM,5.04
same,pIC50,second compound 0.316 µM,< 5.00
same,pIC50,second compound 1 µM,< 5.00
same,"viability, T/C","second compound 0.00316 µM, first compound 0.0316 µM",83.8%
same,"viability, T/C","second compound 0.00316 µM, first compound 0.1 µM",94.6%
same,"viability, T/C","second compound 0.00316 µM, first compound 0.316 µM",101%
same,"viability, T/C","second compound 0.00316 µM, first compound 1 µM",75%
same,"viability, T/C","second compound 0.00316 µM, first compound 3.16 µM",64.4%
same,"viability, T/C","second compound 0.00316 µM, first compound 10 µM",50.3%
same,"viability, T/C","second compound 0.01 µM, first compound 0.0316 µM",100%
same,"viability, T/C","second compound 0.01 µM, first compound 0.1 µM",109%
same,"viability, T/C","second compound 0.01 µM, first compound 0.316 µM",100%
same,"viability, T/C","second compound 0.01 µM, first compound 1 µM",67.9%
same,"viability, T/C","second compound 0.01 µM, first compound 3.16 µM",72.6%
same,"viability, T/C","second compound 0.01 µM, first compound 10 µM",57.6%
same,"viability, T/C","second compound 0.0316 µM, first compound 0.0316 µM",95.5%
same,"viability, T/C","second compound 0.0316 µM, first compound 0.1 µM",108%
same,"viability, T/C","second compound 0.0316 µM, first compound 0.316 µM",89.6%
same,"viability, T/C","second compound 0.0316 µM, first compound 1 µM",79.4%
same,"viability, T/C","second compound 0.0316 µM, first compound 3.16 µM",82.1%
same,"viability, T/C","second compound 0.0316 µM, first compound 10 µM",45.8%
same,"viability, T/C","second compound 0.1 µM, first compound 0.0316 µM",85%
same,"viability, T/C","second compound 0.1 µM, first compound 0.1 µM",96.7%
same,"viability, T/C","second compound 0.1 µM, first compound 0.316 µM",77.4%
same,"viability, T/C","second compound 0.1 µM, first compound 1 µM",80.7%
same,"viability, T/C","second compound 0.1 µM, first compound 3.16 µM",84%
same,"viability, T/C","second compound 0.1 µM, first compound 10 µM",47.3%
same,"viability, T/C","second compound 0.316 µM, first compound 0.0316 µM",108%
same,"viability, T/C","second compound 0.316 µM, first compound 0.1 µM",110%
same,"viability, T/C","second compound 0.316 µM, first compound 0.316 µM",88.7%
same,"viability, T/C","second compound 0.316 µM, first compound 1 µM",85.3%
same,"viability, T/C","second compound 0.316 µM, first compound 3.16 µM",84.3%
same,"viability, T/C","second compound 0.316 µM, first compound 10 µM",52.4%
same,"viability, T/C","second compound 1 µM, first compound 0.0316 µM",112%
same,"viability, T/C","second compound 1 µM, first compound 0.1 µM",92.5%
same,"viability, T/C","second compound 1 µM, first compound 0.316 µM",79.6%
same,"viability, T/C","second compound 1 µM, first compound 1 µM",88.7%
same,"viability, T/C","second compound 1 µM, first compound 3.16 µM",78.5%
same,"viability, T/C","second compound 1 µM, first compound 10 µM",45%
